Source: ChEMBL document CHEMBL4831516, “Development of Membrane-Active Honokiol/Magnolol Amphiphiles as Potent Antibacterial Agents against Methicillin-Resistant Staphylococcus aureus (MRSA)” (J Med Chem, 2021)
Activity calls are given as the source filed them. The rule behind the calls is not given here.

Experiments:
[1] = test system: Staphylococcus aureus; assay: Antibacterial activity against methicillin-resistant Staphylococcus aureus clinical isolate 16 infected in BALB/c mouse assessed as reduction in bacterial load in liver at 25 mg/kg, sc once a day for 3 days by H and E staining based assay; type: functional, organism-based; settings: time 3.0 day
[2] = test system: Micrococcus luteus; assay: Antibacterial activity against Micrococcus luteus assessed as inhibition of visible growth incubated for 16 to 18 hrs by CLSI method; type: functional; settings: time 16-18 hrs, read-out: MIC100
[3] = test system: Cell membrane; assay: Induction of cell membrane permeability in methicillin-resistant Staphylococcus aureus clinical isolate 16 assessed as fluorescent intensity by SYTOX dye based fluorescence assay; type: subcellular
[4] = test system: Staphylococcus aureus; assay: Antibacterial activity against methicillin-resistant Staphylococcus aureus clinical isolate 16 infected in BALB/c mouse assessed as reduction in inflammatory cell inflammation in spleen at 25 mg/kg, sc once a day for 3 days by H and E staining based assay; type: functional, organism-based; settings: time 3.0 day
[5] = Toxicity in BALB/c mouse assessed as abnormalities and pathological changes in liver at 25 mg/kg, sc once a day for 3 days by H and E staining based assay; type: organism-based; settings: in vivo, 72 h, time 3 day
[6] = Toxicity in BALB/c mouse assessed as abnormalities and pathological changes in spleen at 25 mg/kg, sc once a day for 3 days by H and E staining based assay; type: organism-based; settings: in vivo, 72 h, time 3 day
[7] = test system: Staphylococcus aureus; assay: Antibacterial activity against methicillin-resistant Staphylococcus aureus clinical isolate M-19 assessed as inhibition of visible growth incubated for 16 to 18 hrs by CLSI method; type: functional; settings: time 16-18 hrs, read-out: MIC100
[8] = test system: Cell membrane; assay: Induction of membrane disruption in methicillin-resistant Staphylococcus aureus clinical isolate 16 assessed as increase in green fluorescence at 10 ug/ml by SYTOX green staining based confocal laser scanning microscopy; type: subcellular; settings: dose 10.0 µg/ml
[9] = test system: Staphylococcus aureus; assay: Antibacterial activity against methicillin-resistant Staphylococcus aureus clinical isolate 16 infected in BALB/c mouse assessed as reduction in bacterial load in kidney at 25 mg/kg, sc once a day for 3 days by H and E staining based assay; type: functional, organism-based; settings: time 3.0 day
[10] = test system: Staphylococcus aureus; assay: Antibacterial activity against methicillin-resistant Staphylococcus aureus clinical isolate M-13 assessed as inhibition of visible growth incubated for 16 to 18 hrs by CLSI method; type: functional; settings: time 16-18 hrs, read-out: MIC100
[11] = test system: Cell membrane; assay: Induction of membrane disruption in methicillin-resistant Staphylococcus aureus clinical isolate 16 at 4 to 32 ug/ml measured for 16 mins by DiSC35 dye based fluorescence assay; type: subcellular; settings: dose 4-32 µg/ml
[12] = test system: Enterococcus faecalis; assay: Antibacterial activity against Enterococcus faecalis ATCC29212 assessed as inhibition of visible growth incubated for 16 to 18 hrs by CLSI method; type: functional; settings: time 16-18 hrs, read-out: MIC100
[13] = Toxicity in BALB/c mouse assessed as abnormalities and pathological changes in kidney at 25 mg/kg, sc once a day for 3 days by H and E staining based assay; type: organism-based; settings: in vivo, 72 h, time 3 day
[14] = test system: Staphylococcus aureus; assay: Antibacterial activity against […] assessed as fold increase in MIC at sublethal concentration treated over 20 serial passages by resistance development assay; type: functional
[15] = test system: Staphylococcus aureus; assay: Antibacterial activity against methicillin-resistant Staphylococcus aureus clinical isolate M-12 assessed as inhibition of visible growth incubated for 16 to 18 hrs by CLSI method; type: functional; settings: time 16-18 hrs, read-out: MIC100
[16] = test system: Staphylococcus aureus; assay: Antibacterial activity against methicillin-resistant Staphylococcus aureus clinical isolate M-17 assessed as inhibition of visible growth incubated for 16 to 18 hrs by CLSI method; type: functional; settings: time 16-18 hrs, read-out: MIC100
[17] = test system: Cell membrane; assay: Induction of membrane disruption in methicillin-resistant Staphylococcus aureus clinical isolate 16 assessed as increase in blue fluorescence at 10 ug/ml by DAPI staining based confocal laser scanning microscopy; settings: dose 10.0 µg/ml
[18] = test system: Escherichia coli; assay: Antibacterial activity against Escherichia coli ATCC25922 assessed as inhibition of visible growth incubated for 16 to 18 hrs by CLSI method; type: functional; settings: time 16-18 hrs, read-out: MIC100
[19] = test system: Staphylococcus aureus; assay: Antibacterial activity against methicillin-resistant Staphylococcus aureus clinical isolate M-11 assessed as inhibition of visible growth incubated for 16 to 18 hrs by CLSI method; type: functional; settings: time 16-18 hrs, read-out: MIC100
[20] = test system: Staphylococcus aureus; assay: Antibacterial activity against Staphylococcus aureus ATCC29213 assessed as inhibition of visible growth incubated for 16 to 18 hrs by CLSI method; type: functional; settings: time 16-18 hrs, read-out: MIC100
[21] = test system: Bacillus subtilis; assay: Antibacterial activity against Bacillus subtilis assessed as inhibition of visible growth incubated for 16 to 18 hrs by CLSI method; type: functional; settings: time 16-18 hrs, read-out: MIC100
[22] = test system: Stenotrophomonas maltophilia; assay: Antibacterial activity against Stenotrophomonas maltophilia assessed as inhibition of visible growth incubated for 16 to 18 hrs by CLSI method; type: functional; settings: time 16-18 hrs, read-out: MIC100
[23] = test system: Staphylococcus aureus; assay: Antibacterial activity against methicillin-resistant Staphylococcus aureus clinical isolate 16 infected in BALB/c mouse assessed as reduction in inflammatory cell inflammation in liver at 25 mg/kg, sc once a day for 3 days by H and E staining based assay; type: functional, organism-based; settings: time 3.0 day
[24] = test system: Staphylococcus aureus; assay: Bactericidal activity against methicillin-resistant Staphylococcus aureus clinical isolate 16 assessed as reduction in colony formation at 1 times of MIC measured upto 8 hrs by time-kill assay; type: functional, organism-based; settings: time hrs <=8
[25] = test system: Staphylococcus aureus; assay: Antibiofilm activity against methicillin-resistant Staphylococcus aureus clinical isolate 16 assessed as decrease in viable bacteria in biofilm at 2 to 64 ug/ml incubated for 16 to 18 hrs by biofilm disruption assay; type: functional, organism-based; settings: dose 2-64 µg/ml, time 16-18 hrs
[26] = test system: Staphylococcus aureus; assay: Antibacterial activity against methicillin-resistant Staphylococcus aureus clinical isolate M-18 assessed as inhibition of visible growth incubated for 16 to 18 hrs by CLSI method; type: functional; settings: time 16-18 hrs, read-out: MIC100
[27] = test system: Staphylococcus aureus; assay: Antibacterial activity against […] at sublethal concentration treated over 20 serial passages by resistance development assay; type: functional, organism-based
[28] = test system: Salmonella enterica; assay: Antibacterial activity against Salmonella enterica 349812 assessed as inhibition of visible growth incubated for 16 to 18 hrs by CLSI method; type: functional; settings: time 16-18 hrs, read-out: MIC100
[29] = test system: Staphylococcus aureus; assay: Antibacterial activity against methicillin-resistant Staphylococcus aureus clinical isolate M-20 assessed as inhibition of visible growth incubated for 16 to 18 hrs by CLSI method; type: functional; settings: time 16-18 hrs, read-out: MIC100
[30] = test system: Staphylococcus aureus; assay: Bactericidal activity against methicillin-resistant Staphylococcus aureus clinical isolate 16 assessed as reduction in colony formation in early stage at 8 times of MIC measured within 30 mins by time-kill assay; type: functional, organism-based
[31] = test system: Staphylococcus aureus; assay: Antibiofilm activity against Staphylococcus aureus assessed as decrease in viable bacteria in biofilm at 2 to 64 ug/ml incubated for 16 to 18 hrs by biofilm disruption assay; type: functional, organism-based; settings: dose 2-64 µg/ml, time 16-18 hrs
[32] = Hemolytic activity in sheep RBC assessed as hemolysis incubated for 1 hr; type: ADME, cell-based, Ovis aries, Erythrocyte; settings: sheep red blood cells (erythrocytes)
[33] = test system: Cell membrane; assay: Induction of membrane morphological changes in methicillin-resistant Staphylococcus aureus clinical isolate 16 assessed as intact and smooth surface at 10 ug/ml by scanning electron microscopy; type: subcellular; settings: dose 10.0 µg/ml
[34] = test system: Staphylococcus aureus; assay: Antibacterial activity against methicillin-resistant Staphylococcus aureus clinical isolate M-16 assessed as inhibition of visible growth incubated for 16 to 18 hrs by CLSI method; type: functional; settings: time 16-18 hrs, read-out: MIC100
[35] = test system: L02; assay: Cytotoxicity against human L02 cells assessed as cell viability at 128 ug/ml incubated for 24 hrs by CCK8 assay; type: cell-based; settings: l02, 24 h, dose 128 µg/ml
[36] = test system: Staphylococcus aureus; assay: Antibiofilm activity against Staphylococcus aureus assessed as destruction of biofilm at 64 ug/ml incubated for 16 to 18 hrs by crystal violet based biofilm disruption assay relative to control; type: functional; settings: dose 64 µg/ml; time 16-18 hrs

C=CCc1ccc(OCCC[N+](C)(C)CC(=O)NCCCC)c(-c2ccc(OCCC[N+](C)(C)CC(=O)NCCCC)c(CC=C)c2)c1.[Br-].[Br-]
Activity [1]: Active
MIC [2]: 2 µg/mL
Activity [3]: Dose-Dependent Effect
Activity [4]: Active
Activity [5]: Non-Toxic
Activity [6]: Non-Toxic
MIC [7]: 3 µg/mL
Activity [8]: Active
Activity [9]: Active
MIC [10]: 1 µg/mL
Activity [11]: Active
MIC [12]: 2 µg/mL
Activity [13]: Non-Toxic
fold change (FC) [14]: 128
MIC [15]: 0.5 µg/mL
MIC [16]: 0.5 µg/mL
Activity [17]: Dose-Dependent Effect
MIC [18]: 4 µg/mL
MIC [19]: 1 µg/mL
MIC [20]: 1 µg/mL
MIC [21]: 1 µg/mL
MIC [22]: 8 µg/mL
Activity [23]: Active
Activity [24]: Active
Activity [25]: Active
MIC [26]: 0.5 µg/mL
Activity [27]: Active
MIC [28]: 8 µg/mL
MIC [29]: 3 µg/mL
Activity [30]: Active
Activity [31]: Active
HC50 at 1 h [32]: 789 µg/mL
Activity [33]: Active
MIC [34]: 1 µg/mL
Activity [35]: Non-Toxic
Activity [36]: 20%
